Values of other authors as cited in patent US20060057174A1, “Natural-non-toxic insect repellant” (priority 2004, published 2006).

Tested on: Aedes aegypti
Conditions: ingredients of Skin-So-Soft bath oil

| Compound | repellent to Aedes aegypti |
| --- | --- |
| CC(C)OC(=O)CCCCC(=O)OC(C)C [diisopropyl adipate] | repellent |
| O=C(c1ccccc1)c1ccccc1 [benzophenone] | repellent |
